# How the values were obtained:
# Test in all cases: relative viability (nuclei count vs DMSO), 5 days (fraction); higher = more cells survive
# HARA = tested on: HARA
# How it was run: (§1)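 Lung cancer cell lines were seeded in 1536-well plates and dosed by pin tool the next day, with either a single drug or a fixed anchor-drug dose combined with five library-drug doses (not always all listed) spaced in √10 steps. Five days later, one step fixed the cells and stained their nuclei (final 0.05% Triton X-100, 1% formaldehyde, 1 ug/ml Hoechst), and nuclei were counted on 4× images. Relative viability is the nuclei count in treated wells divided by the count in vehicle wells, and each value is the median of duplicate plates.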
# NCI-H2126 = tested on: NCI-H2126
# How it was run: as §1
# LCLC-97TM1 = tested on: LCLC-97TM1
# How it was run: as §1
# HCC-827 = tested on: HCC-827
# How it was run: as §1
# NCI-H1792 = tested on: NCI-H1792
# How it was run: as §1
# NCI-H661 = tested on: NCI-H661
# How it was run: as §1
# NCI-H1944 = tested on: NCI-H1944
# How it was run: as §1
# NCI-H23 = tested on: NCI-H23
# How it was run: as §1
# SK-LU-1 = tested on: SK-LU-1
# How it was run: as §1
# LC-2-ad = tested on: LC-2-ad
# How it was run: as §1
# EMC-BAC-2 = tested on: EMC-BAC-2
# How it was run: as §1
# NCI-H1437 = tested on: NCI-H1437
# How it was run: as §1
# EKVX = tested on: EKVX
# How it was run: as §1
# ChaGo-K-1 = tested on: ChaGo-K-1
# How it was run: as §1
# NCI-H1915 = tested on: NCI-H1915
# How it was run: as §1
# NCI-H460 = tested on: NCI-H460
# How it was run: as §1
# LU99A = tested on: LU99A
# How it was run: as §1
# HCC-15 = tested on: HCC-15
# How it was run: as §1
# NCI-H322M = tested on: NCI-H322M
# How it was run: as §1
# NCI-H441 = tested on: NCI-H441
# How it was run: as §1
# PC-3 [JPC-3] = tested on: PC-3 [JPC-3]
# How it was run: as §1
# H3255 = tested on: H3255
# How it was run: as §1
# NCI-H1793 = tested on: NCI-H1793
# How it was run: as §1
smiles,measurement,setting,value
O=c1[nH]c2ccccc2n1C1CCN(CCCC(c2ccc(F)cc2)c2ccc(F)cc2)CC1 [Pimozide] + CS(=O)(=O)N1CCN(Cc2cc3nc(-c4cccc5[nH]ncc45)nc(N4CCOCC4)c3s2)CC1 [Pictilisib] (partner 1 µM),relative viability,HARA; first compound 0.08 µM,0.252
same,relative viability,HARA; first compound 0.253 µM,0.423
same,relative viability,HARA; first compound 0.8 µM,0.595
same,relative viability,HARA; first compound 2.53 µM,0.351
same,relative viability,HARA; first compound 8 µM,0.368
same,relative viability,NCI-H2126; first compound 0.08 µM,0.437
same,relative viability,NCI-H2126; first compound 0.253 µM,0.468
same,relative viability,NCI-H2126; first compound 0.8 µM,0.512
same,relative viability,NCI-H2126; first compound 2.53 µM,0.499
same,relative viability,NCI-H2126; first compound 8 µM,0.539
same,relative viability,LCLC-97TM1; first compound 0.08 µM,0.194
same,relative viability,LCLC-97TM1; first compound 0.253 µM,0.183
same,relative viability,LCLC-97TM1; first compound 0.8 µM,0.225
same,relative viability,LCLC-97TM1; first compound 2.53 µM,0.18
same,relative viability,LCLC-97TM1; first compound 8 µM,0.119
same,relative viability,HCC-827; first compound 0.253 µM,1.02
same,relative viability,HCC-827; first compound 0.8 µM,0.986
same,relative viability,HCC-827; first compound 2.53 µM,1.04
same,relative viability,HCC-827; first compound 8 µM,1.06
same,relative viability,NCI-H1792; first compound 0.08 µM,0.274
same,relative viability,NCI-H1792; first compound 0.253 µM,0.292
same,relative viability,NCI-H1792; first compound 0.8 µM,0.25
same,relative viability,NCI-H1792; first compound 2.53 µM,0.26
same,relative viability,NCI-H1792; first compound 8 µM,0.314
same,relative viability,NCI-H661; first compound 0.08 µM,0.447
same,relative viability,NCI-H661; first compound 0.253 µM,0.337
same,relative viability,NCI-H661; first compound 0.8 µM,0.454
same,relative viability,NCI-H661; first compound 2.53 µM,0.381
same,relative viability,NCI-H661; first compound 8 µM,0.408
same,relative viability,NCI-H1944; first compound 0.08 µM,0.331
same,relative viability,NCI-H1944; first compound 0.253 µM,0.337
same,relative viability,NCI-H1944; first compound 0.8 µM,0.325
same,relative viability,NCI-H1944; first compound 2.53 µM,0.35
same,relative viability,NCI-H1944; first compound 8 µM,0.33
same,relative viability,NCI-H23; first compound 0.08 µM,0.589
same,relative viability,NCI-H23; first compound 0.253 µM,0.431
same,relative viability,NCI-H23; first compound 0.8 µM,0.448
same,relative viability,NCI-H23; first compound 2.53 µM,0.429
same,relative viability,NCI-H23; first compound 8 µM,0.468
same,relative viability,SK-LU-1; first compound 0.08 µM,0.643
same,relative viability,SK-LU-1; first compound 0.253 µM,0.566
same,relative viability,SK-LU-1; first compound 0.8 µM,0.551
same,relative viability,SK-LU-1; first compound 2.53 µM,0.436
same,relative viability,SK-LU-1; first compound 8 µM,0.469
same,relative viability,LC-2-ad; first compound 0.08 µM,0.594
same,relative viability,LC-2-ad; first compound 0.253 µM,0.405
same,relative viability,LC-2-ad; first compound 0.8 µM,0.461
same,relative viability,LC-2-ad; first compound 2.53 µM,0.553
same,relative viability,LC-2-ad; first compound 8 µM,0.305
same,relative viability,EMC-BAC-2; first compound 0.08 µM,0.486
same,relative viability,EMC-BAC-2; first compound 0.253 µM,0.51
same,relative viability,EMC-BAC-2; first compound 0.8 µM,0.549
same,relative viability,EMC-BAC-2; first compound 2.53 µM,0.532
same,relative viability,EMC-BAC-2; first compound 8 µM,0.54
same,relative viability,NCI-H1437; first compound 0.08 µM,0.543
same,relative viability,NCI-H1437; first compound 0.253 µM,0.464
same,relative viability,NCI-H1437; first compound 0.8 µM,0.499
same,relative viability,NCI-H1437; first compound 2.53 µM,0.421
same,relative viability,NCI-H1437; first compound 8 µM,0.406
same,relative viability,EKVX; first compound 0.253 µM,0.349
same,relative viability,EKVX; first compound 0.8 µM,0.431
same,relative viability,EKVX; first compound 2.53 µM,0.409
same,relative viability,EKVX; first compound 8 µM,0.401
same,relative viability,ChaGo-K-1; first compound 0.08 µM,0.636
same,relative viability,ChaGo-K-1; first compound 0.253 µM,0.614
same,relative viability,ChaGo-K-1; first compound 0.8 µM,0.694
same,relative viability,ChaGo-K-1; first compound 2.53 µM,0.762
same,relative viability,ChaGo-K-1; first compound 8 µM,0.569
same,relative viability,NCI-H1915; first compound 0.08 µM,0.972
same,relative viability,NCI-H1915; first compound 0.253 µM,0.892
same,relative viability,NCI-H1915; first compound 0.8 µM,0.524
same,relative viability,NCI-H1915; first compound 2.53 µM,0.889
same,relative viability,NCI-H1915; first compound 8 µM,0.796
same,relative viability,NCI-H460; first compound 0.08 µM,0.236
same,relative viability,NCI-H460; first compound 0.253 µM,0.385
same,relative viability,NCI-H460; first compound 0.8 µM,0.386
same,relative viability,NCI-H460; first compound 2.53 µM,0.353
same,relative viability,NCI-H460; first compound 8 µM,0.366
same,relative viability,LU99A; first compound 0.08 µM,0.344
same,relative viability,LU99A; first compound 0.253 µM,0.284
same,relative viability,LU99A; first compound 0.8 µM,0.314
same,relative viability,LU99A; first compound 2.53 µM,0.302
same,relative viability,LU99A; first compound 8 µM,0.334
same,relative viability,HCC-15; first compound 0.08 µM,0.809
same,relative viability,HCC-15; first compound 0.253 µM,0.767
same,relative viability,HCC-15; first compound 0.8 µM,0.616
same,relative viability,HCC-15; first compound 2.53 µM,0.709
same,relative viability,HCC-15; first compound 8 µM,0.749
same,relative viability,NCI-H322M; first compound 0.253 µM,0.509
same,relative viability,NCI-H322M; first compound 0.8 µM,0.478
same,relative viability,NCI-H322M; first compound 2.53 µM,0.482
same,relative viability,NCI-H322M; first compound 8 µM,0.382
same,relative viability,NCI-H441; first compound 0.08 µM,0.593
same,relative viability,NCI-H441; first compound 0.253 µM,0.445
same,relative viability,NCI-H441; first compound 0.8 µM,0.491
same,relative viability,NCI-H441; first compound 2.53 µM,0.447
same,relative viability,NCI-H441; first compound 8 µM,0.344
same,relative viability,PC-3 [JPC-3]; first compound 0.253 µM,0.695
same,relative viability,PC-3 [JPC-3]; first compound 0.8 µM,0.654
same,relative viability,PC-3 [JPC-3]; first compound 2.53 µM,0.698
same,relative viability,PC-3 [JPC-3]; first compound 8 µM,0.686
same,relative viability,H3255; first compound 0.253 µM,0.406
same,relative viability,H3255; first compound 0.8 µM,0.575
same,relative viability,H3255; first compound 2.53 µM,0.456
same,relative viability,H3255; first compound 8 µM,0.506
same,relative viability,NCI-H1793; first compound 0.08 µM,0.296
same,relative viability,NCI-H1793; first compound 0.253 µM,0.302
same,relative viability,NCI-H1793; first compound 0.8 µM,0.311
same,relative viability,NCI-H1793; first compound 2.53 µM,0.357
same,relative viability,NCI-H1793; first compound 8 µM,0.275

# Reference: the supplement of paper PMC10307832
